Results from patent publication US20060153861A1, “BCR-ABL imatinib resistance-associated peptides and methods of use thereof” (priority 2004, published 2006).

Tests used:
[1] = system: T2 cells pulsed with peptide; experiment: Chromium-51 release cytotoxicity assay with peptide-stimulated T cells; format: cell-based, human; details: for killing of T2 cells pulsed with kinase mutant sequence peptides: T cells generated by several stimulations with the peptide, not with control peptide or no peptide; for killing of cells expressing the native peptide: T cell lines after several stimulations with the heteroclitic peptide; for killing of T2 cells pulsed with the heteroclitic peptide: T cell lines after several stimulations, no lysis of T2 without peptide or with control peptide
Protocol: T lymphocytes were isolated from the same donors by use of negative selection by depletion with an anti-CD11b, anti-CD56 and CD19 MAb (Miltenyi, CA). A total of 1×10^6 pure T lymphocytes were cultured with 1×10^5 autologous DC in RPMI 1640 medium supplemented with 5% heat-inactivated human autologous plasma with bcr-abl synthetic peptides at a concentration of 10 μg/mL and β2 microglobulin at 2 μg/ml in 24-well plates in the presence of 5-10 ng/mL recombinant human IL-7 (Genzyme) and 0.1 ng/ml IL-12. After culture for 3 days 20 U/ml of IL-2 was added. After 10 days, 1×10^6 cells were stimulated again by adding 2×10^5 autologous, magnetically isolated CD14^+ monocytes together with 10 ng/ml of IL-7 and 20 U/ml IL-2 and peptide at a concentration of […]. In some cases, as indicated, after culture for another 7 days, the cells were stimulated a third time, in the same manner. After the second or third stimulation, CD8 T cells were magnetically isolated and cytotoxicity and gamma-IFN (interferon) secretion of these cells was then examined.
The presence of specific CTLs was measured in a standard 4 h-chromium release assay as follows. 4×10^6 targets were labeled with 300 μCi of Na2 ^51CrO+ (NEN Life Science Products, Inc. Boston, Mass.) for 1 hour at 37° C. After washing, cells at 2×10^6/ml concentration were incubated with or without synthetic peptides at a concentration of 10 μg/ml for 2 h at 20° C. in presence of β2 microglobulin at 3 μg/ml. After washing by centrifugation, target cells were resuspended in complete media at 5×10^4 cells per ml and plated in a 96 well U-bottom plate (Becton Dickinson®, NY) at 5×10^3 cells per well with effector cells at effector to target (E/T) ratios ranging from 100:1 to 10:1. Plates were incubated for 5 hours at 37° C. in 5% CO2. Supernatant fluids were harvested and radioactivity was measured -in a gamma counter. Percent specific lysis was determined from the following formula: 100× [(experimental release−spontaneous release)/(maximum release−spontaneous release)]. Maximum release was determined by lysis of targets in 2.5% Triton X-100.
In order to determine whether the in vitro-generated T cells were capable of cytolysis, T cell lines obtained after several stimulations with p210C and b2a2A3 were assayed by chromium-51 release assays using peptide pulsed target cell lines.

[2] = system: T cells from HLA A0201 donors challenged with peptide-pulsed T2 cells; experiment: Gamma interferon ELISPOT of T cells after in vitro stimulation with peptide; format: cell-based, human; details: for heteroclitic response (ELISPOT) / IFN-γ production (ELISPOT): CD3+ T cells from HLA A0201 donors; for heteroclitic response (ELISPOT): FIGS. 8 and 9; for IFN-γ production (ELISPOT): imatinib resistance-associated peptides, two or three stimulations; for recognition of the native sequence by T cells elicited with the peptide / immune response (IFN-gamma secretion, ELISPOT) / immune response as gamma-IFN secretion by CD3+ T cells: healthy HLA A0201 donors; for recognition of the native sequence by T cells elicited with the peptide: T2 pulsed with native peptide; for immune response (IFN-gamma secretion, ELISPOT): second or third round of peptide stimulation, peptide-pulsed T2 targets; for immune response as gamma-IFN secretion by CD3+ T cells: b2a2-derived peptides, FIG. 4
HLA A0201 molecules = target: T1, HLA A0201 molecules (Homo sapiens, UniProt P04439, D140Y/D185E/D98H/E176V/E277Q/G131W/G231S/I119V/I121R/I166T/I218V/L300P/L318F/N151K/N90K/P208A/P217A/Q86G/Q94H/R138H/R169H/T345S); experiment: T2 assay for peptide binding to HLA A0201 molecules; details: T2 cells, FIG. 1
T1 construct: endogenous in cells; host or cells: T2 (174xCEM.T2) human cell line
Protocol: (§1) T2 cells (TAP-, HLA-A0201^+) were incubated overnight at 27° C. at a concentration of 1×10^6 cells/ml in FCS-free RPMI medium supplemented with 5 μg/ml human β2microglobulin (Sigma, St Louis, Mo.) in the absence (negative control) or presence of either a positive reference tyrosinase peptide or test peptides at various final concentrations (50, 10, 1, and 0.1 μg/ml). Following a 4-hour incubation with 5 μg/ml brefeldin A (Sigma), T2 cells were labeled for 30 minutes at 4° C. with a saturating concentration of anti-HLA-A2.1 (BB7.2) monoclonal antibody (mAb), then washed twice. The cells were then incubated for 30 minutes at 4° C. with a saturating concentration of FITC-conjugated goat IgG F(ab′)2 anti-mouse Ig (Caltag, South San Francisco, Calif.), washed twice, fixed in PBS/1% paraformaldehyde and analyzed using a FACS Calibur® cytofluorometer (Becton Dickinson, Immunocytometry systems, San Jose, Calif.).
The mean intensity of fluorescence (MIF) observed for each peptide concentration (after dividing of the MIF observed without peptide) was used as an estimate of peptide binding and expressed as a fluorescence index. Stabilization assays were performed similarly. Following initial evaluation of peptide binding at time 0, cells were washed in RPMI complete medium to remove free peptides and incubated in the continuous presence of 0.5 pg/ml brefeldin-A for 2, 4, 6 or 8 hours. […]

[3] = target: T2, HLA-A0201 molecule on T2 cells (TAP-, HLA-A0201+) (human); experiment: T2 assay, referred to in the ELISPOT example
T2 construct: Empty, thermolabile HLA-A0201 on live T2 cells; also called HLA-A2.1

[4] = target: T2, HLA-A0201 molecule on T2 cells (TAP-, …); experiment: T2 binding and stabilization assay, flow cytometry with BB7.2
Protocol: as §1, with “HLA-A0201⁺)” for “HLA-A0201^+)”, “1×10⁶” for “1×10^6”, “β₂microglobulin” for “β2microglobulin”
The mean intensity of fluorescence (MIF) observed for each peptide concentration (after dividing of the MIF observed without peptide) was used as an estimate of peptide binding and expressed as a fluorescence index. Stabilization assays were performed similarly. Following initial evaluation of peptide binding at time 0, cells were washed in RPMI complete medium to remove free peptides and incubated in the continuous presence of 0.5 pg/ml brefeldin-A for 2, 4, 6 or 8 hours.
For peptides to be immunogenic, in an MHC class I-restricted context, they require the capacity to bind and stabilize MHC class I molecules on the live cell surface. Since the computer prediction models above have 60-80% predictive accuracy, direct measurement of the strength of the interaction between the peptides and the HLA-A0201 molecule was performed, with a conventional binding and stabilization assay that uses the antigen-transporting deficient (TAP2 negative) HLA-A0201 human T2 cells.

IIIEFMTYV (listed as Homo sapiens) [T3A2]
killing of T2 cells pulsed with kinase mutant sequence peptides [1]: able to kill T2 cells pulsed with specific kinase mutant sequence peptides

KLGGGQFGV (listed as Homo sapiens) [V2A3]
heteroclitic response (ELISPOT) [2]: stimulated heteroclitic responses

KLGGGQYGV (listed as Homo sapiens) [V2A1]
IFN-γ production (ELISPOT) [2]: greater IFN-γ was produced following a third stimulation

KLLQRPVAV (listed as Homo sapiens) [p210C]
killing of cells expressing the native peptide [1]: able to recognize and kill cells expressing the native peptide
killing of T2 cells pulsed with the heteroclitic peptide [1]: able to kill T2 cells pulsed with the heteroclitic peptides
immune responses in CML patients ([2]; 4 patients with chronic phase CML assayed): observed in two of the CML patients
frequency of CD8+ cells recognizing T2 pulsed with the synthetic peptide ([2]; CML patient, two rounds of stimulation): ~400 spot-forming cells (SCF) per 1×10^5 cells
recognition of the native sequence by T cells elicited with the peptide [2]: able to recognize their respective native sequences
immune response (IFN-gamma secretion, ELISPOT) [2]: most consistent and significant immune-responses

KLSSKALQV (listed as Homo sapiens) [p210B]
immune response (IFN-gamma secretion, ELISPOT) [2]: no immune response

KQSSKALQV (listed as Homo sapiens) [p210A]
immune response (IFN-gamma secretion, ELISPOT) [2]: no immune response

KVYEGVWKV (listed as Homo sapiens) [K2A3]
killing of T2 cells pulsed with kinase mutant sequence peptides [1]: able to kill T2 cells pulsed with specific kinase mutant sequence peptides
heteroclitic response (ELISPOT) [2]: stimulated heteroclitic responses

SSKALQRPV (listed as Homo sapiens) [CMLA2, native b3a2 breakpoint peptide, previously described]
binding to HLA A0201 in the T2 assay (HLA A0201 molecules): weak MHC binder

TLFKQSSKV (listed as Homo sapiens) [p210D]
immune response (IFN-gamma secretion, ELISPOT) [2]: produced an immune response in some donors tested

YIIIEFMTYV (listed as Homo sapiens) [T3B2]
heteroclitic response (ELISPOT) [2]: stimulated heteroclitic responses

YLFKQSSKV (listed as Homo sapiens) [p210E]
immune response (IFN-gamma secretion, ELISPOT) [2]: produced an immune response in some donors tested

YLGGGQFGV (listed as Homo sapiens) [V2A2]
IFN-γ production (ELISPOT) [2]: greater IFN-γ production following a second stimulation
recognition of the native sequence by T cells elicited with the peptide [2]: recognized native sequences

YLINKEEAL (listed as Homo sapiens) [b2a2 A3]
killing of cells expressing the native peptide [1]: able to recognize and kill cells expressing the native peptide
killing of T2 cells pulsed with the heteroclitic peptide [1]: able to kill T2 cells pulsed with the heteroclitic peptides
recognition of the native sequence by T cells elicited with the peptide [2]: recognized the native sequence as well
immune response as gamma-IFN secretion by CD3+ T cells [2]: significant immune respose

YLINKEEAV (listed as Homo sapiens) [b2a2 A4]
immune response as gamma-IFN secretion by CD3+ T cells [2]: significant immune respose

YLINKVEAL (listed as Homo sapiens) [b2a2 A5]
immune response as gamma-IFN secretion by CD3+ T cells [2]: significant immune respose

B1: CMLA2 native (peptide)
peptide: SSKALQRPV
binding result [3]: binds

B2: p210Cn native (peptide)
peptide: KALQRPVAS
binding result [4]: binds

B3: b2a2 A3 (analogue) (peptide)
peptide: YLINKEEAL
binding result [4]: binds

B4: b2a2 A4 (analogue) (peptide)
peptide: YLINKEEAV
binding result [4]: binds

B5: b2a2 A5 (analogue) (peptide)
peptide: YLINKVEAL
binding result [4]: binds
